Data taken from patent US9339471B2, “Long acting dual release product containing carbinoxamine and pseudoephedrine” (E5 PHARMA, LLC, priority 2007, dated 2016).
Read-outs that look alike come from different tables or passages of the source. Marks after values point to notes of the source that are not given here.

How the values were obtained:
[1] = Single dose fasted bioavailability study, 4 mg immediate release carbinoxamine maleate tablet; format: in vivo; design: Plasma concentration of carbinoxamine: unit not given here; settings: for Cmax / Tmax / half-life / AUC(0-t) / MRT: 4 mg
Description: (§1) A single dose fasted bioavailability study was undertaken using four milligram immediate release carbinoxamine maleate tablets formulated in an immediate release format. Samples were taken over a forty eight hours period after administration of the drug, and the first meal was allowed to be ingested four hours after administration. Table 3 compares the observed pharmacokinetics from this test to those observed by Stockis et al. in Arzneim.-Forsch 1992, 42(12):1478-81, and Stockis et al. in Arzneim.-Forsch 1995, 45(9) 1009-1012.
FIG. 1 is a mean plasma concentration-time profile of the carbinoxamine after administering the immediate release tablet in the fasted state from time 0 to time 48 hours. Graph (A) is the linear ordinate; graph (B) is the log-linear ordinate.

[2] = Literature 1 (Stockis et al. 1992): bioavailability of 8 mg aqueous solution and 8 mg retard capsule of carbinoxamine; settings: in vivo, normalized to 4 mg dose
Experimental: The pharmacokinetics of carbinoxamine maleate have been reported in the literature. Stockis et al., Arzneim.-Forsch 1992, 42(12):1478-81, studied the bioavailability of an 8 mg aqueous solution of carbinoxamine and an 8 mg retard capsule of carbinoxamine.
as §1

[3] = cited from earlier work; for AUC(0-t): AUC0-24
[4] = human, plasma, po, Our study, Tablet 4 mg
[5] = human, plasma, po, fasted, Mean
[6] = human, plasma, po, fasted, subject 101
[7] = human, plasma, po, fasted, subject 102
[8] = human, plasma, po, fasted, subject 103
[9] = po, Literature 1, Retard capsule 8 mg
[10] = Literature 1, Aqueous solution 8 mg
[11] = Literature 1, Retard capsule 8 mg

With CN(C)CCOC(c1ccc(Cl)cc1)c1ccccn1 (centres unmarked) [carbinoxamine, 2-[(4-chlorophenyl)-2-pyridinylmethoxy]-N,N-dimethylethanamine (Z)-2-butenedioate (1:1)] the “Plasma concentration of carbinoxamine” value ([1]; fasted, 0 h, subject 101T) was “blq”, the “Plasma concentration of carbinoxamine” value ([1]; fasted, 0 h, subject 102T) was “blq” and the “Plasma concentration of carbinoxamine” value ([1]; fasted, 0 h, subject 103T) was “blq”. The “Plasma concentration of carbinoxamine” value ([1]; fasted, 0.5 h, T-Mean) was 315.41, the “Plasma concentration of carbinoxamine” value ([1]; fasted, 0.5 h, subject 101T) was 434.78 and the “Plasma concentration of carbinoxamine” value ([1]; fasted, 0.5 h, subject 102T) was 459.42. For the same compound, the “Plasma concentration of carbinoxamine” value ([1]; fasted, 0.5 h, subject 103T) was 52.04, the “Plasma concentration of carbinoxamine” value ([1]; fasted, 1 h, T-Mean) was 4153.31 and the “Plasma concentration of carbinoxamine” value ([1]; fasted, 1 h, subject 101T) was 5908.19. The “Plasma concentration of carbinoxamine” value ([1]; fasted, 1 h, subject 102T) was 4949.36, the “Plasma concentration of carbinoxamine” value ([1]; fasted, 1 h, subject 103T) was 1602.38 and the “Plasma concentration of carbinoxamine” value ([1]; fasted, 2 h, T-Mean) was 6406.31. The “Plasma concentration of carbinoxamine” value ([1]; fasted, 2 h, subject 101T) was 6488.14, the “Plasma concentration of carbinoxamine” value ([1]; fasted, 2 h, subject 102T) was 5684.72 and the “Plasma concentration of carbinoxamine” value ([1]; fasted, 2 h, subject 103T) was 7046.07. For the same compound, the “Plasma concentration of carbinoxamine” value ([1]; fasted, 3 h, T-Mean) was 7062.72, the “Plasma concentration of carbinoxamine” value ([1]; fasted, 3 h, subject 101T) was 8022.80 and the “Plasma concentration of carbinoxamine” value ([1]; fasted, 3 h, subject 102T) was 6592.16. The “Plasma concentration of carbinoxamine” value ([1]; fasted, 3 h, subject 103T) was 6573.21, the “Plasma concentration of carbinoxamine” value ([1]; fasted, 4 h, T-Mean) was 6647.30 and the “Plasma concentration of carbinoxamine” value ([1]; fasted, 4 h, subject 101T) was 7860.85. For the same compound, the “Plasma concentration of carbinoxamine” value ([1]; fasted, 4 h, subject 102T) was 6236.91, the “Plasma concentration of carbinoxamine” value ([1]; fasted, 4 h, subject 103T) was 5854.14 and the “Plasma concentration of carbinoxamine” value ([1]; fasted, 5 h, T-Mean) was 6515.83. For the same compound, the “Plasma concentration of carbinoxamine” value ([1]; fasted, 5 h, subject 101T) was 7726.57, the “Plasma concentration of carbinoxamine” value ([1]; fasted, 5 h, subject 102T) was 6649.03 and the “Plasma concentration of carbinoxamine” value ([1]; fasted, 5 h, subject 103T) was 5171.89. The “Plasma concentration of carbinoxamine” value ([1]; fasted, 6 h, T-Mean) was 5903.78, the “Plasma concentration of carbinoxamine” value ([1]; fasted, 6 h, subject 101T) was 7251.86 and the “Plasma concentration of carbinoxamine” value ([1]; fasted, 6 h, subject 102T) was 6097.18. For the same compound, the “Plasma concentration of carbinoxamine” value ([1]; fasted, 6 h, subject 103T) was 4362.30, the “Plasma concentration of carbinoxamine” value ([1]; fasted, 8 h, T-Mean) was 5510.70 and the “Plasma concentration of carbinoxamine” value ([1]; fasted, 8 h, subject 101T) was 6849.38. For the same compound, the “Plasma concentration of carbinoxamine” value ([1]; fasted, 8 h, subject 102T) was 5707.15, the “Plasma concentration of carbinoxamine” value ([1]; fasted, 8 h, subject 103T) was 3975.57 and the “Plasma concentration of carbinoxamine” value ([1]; fasted, 12 h, T-Mean) was 4292.77. For the same compound, the “Plasma concentration of carbinoxamine” value ([1]; fasted, 12 h, subject 101T) was 5821.63, the “Plasma concentration of carbinoxamine” value ([1]; fasted, 12 h, subject 102T) was 4387.40 and the “Plasma concentration of carbinoxamine” value ([1]; fasted, 12 h, subject 103T) was 2669.29. The “Plasma concentration of carbinoxamine” value ([1]; fasted, 24 h, T-Mean) was 2144.60, the “Plasma concentration of carbinoxamine” value ([1]; fasted, 24 h, subject 101T) was 2632.77 and the “Plasma concentration of carbinoxamine” value ([1]; fasted, 24 h, subject 102T) was 2395.51. The “Plasma concentration of carbinoxamine” value ([1]; fasted, 24 h, subject 103T) was 1405.53, the “Plasma concentration of carbinoxamine” value ([1]; fasted, 36 h, T-Mean) was 1371.30 and the “Plasma concentration of carbinoxamine” value ([1]; fasted, 36 h, subject 101T) was 1541.30. For the same compound, the “Plasma concentration of carbinoxamine” value ([1]; fasted, 36 h, subject 102T) was 1516.80, the “Plasma concentration of carbinoxamine” value ([1]; fasted, 36 h, subject 103T) was 1055.79 and the “Plasma concentration of carbinoxamine” value ([1]; fasted, 48 h, T-Mean) was 876.29. The “Plasma concentration of carbinoxamine” value ([1]; fasted, 48 h, subject 101T) was 1102.33, the “Plasma concentration of carbinoxamine” value ([1]; fasted, 48 h, subject 102T) was 1003.18 and the “Plasma concentration of carbinoxamine” value ([1]; fasted, 48 h, subject 103T) was 528.37. The Cmax [1, 4] was 7.2 ng/mL, the Tmax [1, 4] was 3.3 h and the half-life [1, 4] was 1100 min. For the same compound, the AUC(0-t) [1, 5] was 161 ng·h/mL, the Cmax [1, 5] was 7.24 ng/mL and the MRT [1, 5] was 24.1 h. The Tmax [1, 5] was 3.33 h, the half-life [1, 5] was 1100 min and the AUC(0-t) ([1]; human, plasma, po, fasted, Mean, first AUC column) was 137 ng·h/mL. The Cmax [1, 6] was 8.02 ng/mL, the MRT [1, 6] was 24.7 h and the Tmax [1, 6] was 3 h. It also gave a half-life [1, 6] of 1150 min, an AUC(0-t) ([1]; human, plasma, po, fasted, subject 101, first AUC column) of 169 ng·h/mL and an AUC(0-t) ([1]; human, plasma, po, fasted, subject 101, second AUC column) of 200 ng·h/mL. For the same compound, the Cmax [1, 7] was 6.65 ng/mL, the MRT [1, 7] was 25.9 h and the Tmax [1, 7] was 5 h. For the same compound, the half-life [1, 7] was 1150 min, the AUC(0-t) ([1]; human, plasma, po, fasted, subject 102, first AUC column) was 143 ng·h/mL and the AUC(0-t) ([1]; human, plasma, po, fasted, subject 102, second AUC column) was 171 ng·h/mL. It also gave a Cmax [1, 8] of 7.05 ng/mL, an MRT [1, 8] of 21.7 h and a Tmax [1, 8] of 2 h. The half-life [1, 8] was 1010 min, the AUC(0-t) ([1]; human, plasma, po, fasted, subject 103, first AUC column) was 98.4 ng·h/mL and the AUC(0-t) ([1]; human, plasma, po, fasted, subject 103, second AUC column) was 111 ng·h/mL. It also gave an AUC ([1]; human, plasma, po, Our study, Tablet 4 mg, read-out: AUC0-* ·) of 161 ng·h/mL, an AUC(0-t) ([1]; plasma, po, Our study, Tablet 4 mg, AUC0-48) of 137 ng·h/mL and an AUC(0-t) [2, 9] of 119 ng·h/mL. It also gave a Cmax [2, 9] of 8.45 ng/mL, an AUC(0-t) [2, 10] of 143 ng·h/mL and a Cmax [2, 10] of 12 ng/mL. The Cmax ([3]; 8 mg aqueous solution) was 24 ng/mL, the half-life ([3]; 8 mg aqueous solution) was 10.6 h and the Cmax ([3]; 8 mg retard capsule) was 16.9 ng/mL. The Tmax ([3]; 8 mg retard capsule) was 8 h, the half-life ([3]; 8 mg retard capsule) was 14.5 h and the AUC(0-t) [3, 10] was 386^b ng/ml * h. For the same compound, the Cmax [3, 10] was 24 ng/mL, the T1/2 [3, 10] was 10.6 h and the AUC(0-t) [3, 11] was 238^b ng/ml * h. For the same compound, the Cmax [3, 11] was 16.9 ng/mL and the T1/2 [3, 11] was 14.5 h.
